{"source": "patent US20220127258A1", "about": "“AROMATIC RING OR HETEROAROMATIC RING COMPOUNDS, PREPARATION METHOD THEREFOR AND MEDICAL USE THEREOF” (The National Institutes of Pharmaceutical R&D Co., Ltd., priority 2019, published 2022)", "target": "T1, hERG channel (Homo sapiens, UniProt Q12809)", "T1 construct": "host or cells: HEK293 stably expressing hERG", "T1 sequence (Q12809 whole entry)": "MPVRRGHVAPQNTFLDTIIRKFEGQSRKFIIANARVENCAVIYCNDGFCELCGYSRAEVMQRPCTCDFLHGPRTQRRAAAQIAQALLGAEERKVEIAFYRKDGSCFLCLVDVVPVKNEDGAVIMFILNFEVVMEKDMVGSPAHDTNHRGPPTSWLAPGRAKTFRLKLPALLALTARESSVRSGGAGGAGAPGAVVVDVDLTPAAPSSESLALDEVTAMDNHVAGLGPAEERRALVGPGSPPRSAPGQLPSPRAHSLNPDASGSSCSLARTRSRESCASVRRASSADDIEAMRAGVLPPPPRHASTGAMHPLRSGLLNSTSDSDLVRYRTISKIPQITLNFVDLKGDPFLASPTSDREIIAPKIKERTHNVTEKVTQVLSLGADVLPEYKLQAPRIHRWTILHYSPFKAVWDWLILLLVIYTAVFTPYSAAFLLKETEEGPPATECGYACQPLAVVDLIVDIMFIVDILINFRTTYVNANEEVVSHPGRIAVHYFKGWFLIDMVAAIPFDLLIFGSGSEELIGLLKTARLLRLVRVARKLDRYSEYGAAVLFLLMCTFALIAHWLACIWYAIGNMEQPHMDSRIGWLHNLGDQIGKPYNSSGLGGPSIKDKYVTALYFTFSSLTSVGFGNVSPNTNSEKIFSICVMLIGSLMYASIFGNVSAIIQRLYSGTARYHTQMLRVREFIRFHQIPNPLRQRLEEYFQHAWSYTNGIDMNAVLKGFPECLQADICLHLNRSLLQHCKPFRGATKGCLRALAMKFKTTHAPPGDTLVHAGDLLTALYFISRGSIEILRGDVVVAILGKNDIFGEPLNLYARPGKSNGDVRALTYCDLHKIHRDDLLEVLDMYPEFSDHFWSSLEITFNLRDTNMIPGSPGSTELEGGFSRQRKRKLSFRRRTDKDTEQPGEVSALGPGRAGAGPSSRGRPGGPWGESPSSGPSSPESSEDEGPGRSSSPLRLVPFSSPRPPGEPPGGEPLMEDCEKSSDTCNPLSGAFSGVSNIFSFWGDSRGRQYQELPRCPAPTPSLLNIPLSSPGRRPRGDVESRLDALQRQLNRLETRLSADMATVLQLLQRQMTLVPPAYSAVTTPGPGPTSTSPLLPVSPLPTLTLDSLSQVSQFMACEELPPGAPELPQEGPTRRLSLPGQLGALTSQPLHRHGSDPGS", "assay": "Effect on hERG channel, whole-cell membrane clamp", "type": "cell-based", "conditions": "for hERG current inhibition ratio: n=3", "experimental": "Extracellular fluid: 140 mM NaCl, 3.5 mM KCl, 1 mM MgCl2, 2 mM CaCl2, 10 mM glucose, 10 mM HEPES, 1.25 mM NaH2PO4, pH=7.4 (adjusted by NaOH).\nIntracellular fluid: 20 mM KCl, 115 mM K-aspartic acid, 1 mM MgCl2, 5 mM EGTA, 10 mM HEPES, 2 mM Na2-ATP, pH=7.2 (adjusted by KOH).\nThe stock solution of the compound of Example 8 of the present invention (30.26 mM solution in DMSO) was successively diluted with 10 mL of extracellular fluid to obtain 0.3 μM, 1 μM, 3 μM, […], and 30 μM solutions.\nThe HEK293 cell line stably expressing the hERG potassium channel (supplier Creacell, catalog number A-0302) was cultured in DMEM medium containing 10% fetal bovine serum and 0.8 mg/mL G418. The culture temperature was 37° C., and the carbon dioxide concentration was 5%.\nCell passage: The old medium was removed, and the cells were washed with PBS once. 1 mL of TrypLE™ expression solution was added, and the cells were incubated at 37° C. for 0.5 minutes. When the cells detached from the bottom of the dish, 5 mL of 37° C. pre-warmed complete medium (DMEM medium containing 10% fetal bovine serum and 0.8 mg/mL G418) was added. The cell suspension was gently pipetted to separate the aggregated cells. The cell suspension was transferred to a sterile centrifuge tube, and centrifuged at 1000 rpm for 5 minutes to collect the cells. Expansion or maintenance culture, the cells were seeded in a 6 cm cell culture dish, and each cell culture dish was seeded with 2.5×10^5 cells (final volume: 5 mL). In order to maintain the electrophysiological activity of the cell, the cell density must not exceed 80%. The cells were separated by TrypLE™ expression solution, and 3×10^3 cells were placed on a cover slide and cultured in a 24-well plate (final volume: 500 μL). Membrane clamp test was carried out after 18 hours.\nThe voltage stimulus protocol of the whole-cell membrane clamp for recording the whole-cell hERG potassium current is as follows. When a whole-cell sealing was formed, the membrane clamp was disposed at −80 mV. The clamp voltage was depolarized from −80 mV to +30 mV for 2.5 seconds, and then quickly maintained at −50 mV for 4 seconds, which can excite the tail current of the hERG channel. −50 mV was used for leakage current detection in the test. The data was collected repeatly every 10 seconds to observe the effect of the compound on hERG tail current. The test data was collected by EPC-10 amplifier (HEKA) and stored in PatchMaster (HEKA) software.\nA capillary glass tube (BF150-86-10, Sutter Instruments) was prepared into a recording electrode using a microelectrode puller (P97, Sutter Instruments). Microelectrode manipulator (MP285, Sutter Instruments) was manipulated under an inverted microscope (IX71, Olympus) to contact the recording electrode to the cell, and suction was applied under negative pressure to form a […]. After forming the […], a rapid capacitance compensation was performed, then a negative pressure was applied to break the cell membrane and create a whole-cell recording mode. A slow capacitor compensation was performed, and the membrane capacitance and series resistance were recorded without leakage compensation.\nWhen the hERG current of the whole-cell record was stable, administration was conducted. Each concentration was tested for 5 minutes (or until the current was stable) before testing the next concentration. Multiple concentrations were tested for each test compound. The cover slide seeded with the cell was placed in a recording bath of an inverted microscope. The test compound and the compound-free extracellular fluid flowed through the recording chamber by gravity perfusion from low concentrations to high concentrations to act on the cell. Liquid exchange was performed using a vacuum pump in the record. For each cell, the current detected in the compound-free extracellular fluid was used as the control. Three cells were repeatly tested independently. All electrophysiological experiments were carried out at room temperature.", "data": [{"smiles": "O=C(O)c1ccc(-c2nnc(N3[C@@H]4CC[C@H]3C[C@@H](OCc3c(-c5c(Cl)cccc5Cl)noc3C3CC3)C4)o2)cc1", "note": "[Example 8, 4-(5-((1R,3r,5S)-3-((5-cyclopropyl-3-(2,6-dichlorophenyl)isoxazol-4-yl)methoxy)-8-azabicyclo[3.2.1]octan-8-yl)-1,3,4-oxadiazol-2-yl)benzoic acid]", "values": [{"measurement": "hERG current inhibition ratio", "setting": "0.3 μM, HEK293 cell line stably expressing hERG", "result": "−2.37 ± 0.62", "unit": "%"}, {"measurement": "hERG current inhibition ratio", "setting": "1 μM, HEK293 cell line stably expressing hERG", "result": "−3.09 ± 0.30", "unit": "%"}, {"measurement": "hERG current inhibition ratio", "setting": "3 μM, HEK293 cell line stably expressing hERG", "result": "0.48 ± 1.78", "unit": "%"}, {"measurement": "hERG current inhibition ratio", "setting": "10 μM, HEK293 cell line stably expressing hERG", "result": "12.65 ± 2.25", "unit": "%"}, {"measurement": "hERG current inhibition ratio", "setting": "30 μM, HEK293 cell line stably expressing hERG", "result": "31.67 ± 1.86", "unit": "%"}, {"measurement": "IC50", "setting": "HEK293 cell line stably expressing hERG, whole-cell membrane clamp, read-out: hERG semi-inhibiting concentration (IC50)", "result": "> 30", "unit": "µM"}, {"measurement": "inhibitory effect on hERG channel (in words)", "setting": "conclusion of Test Example 3", "result": "no inhibitory effect on hERG channel"}]}]}
